The source of these data is patent US5102871A, “Nutrient composition” (Kyowa Hakko Kogyo Co., Ltd., priority 1989, dated 1992).

Each structure is given as a SMILES string. Bridge positions count the residues as written; N and C are the ends. Peptide text beside a SMILES is read from it. I, II: the chains in the order shown. Where only a bound is given, the exact number is not on record here.

A short description of one data set: Solubility in water. The following applies: pH 6.5, 25° C. The class given is physicochemical.
The target of data set [1] is T1, γ-glutamyltransferase prepared from swine kidney (Sus scrofa, UniProt P20735).
T1 construct: γ-glutamyltransferase prepared from swine kidney; from tissue; host or cells: swine kidney
The data set can be described thus: Hydrolysis by γ-glutamyltransferase. Format: biochemical. The conditions noted are these: 5 mM peptide, Tris-hydrochloride buffer pH 7, 37° C., 120 minutes. As for the experimental part:
It was thus recognized that there was a difference between these peptides with respect to utilization in vivo.
A peptide was dissolved in Tris-hydrochloride buffer solution (pH 7) in a concentration of 5 mM and γ-glutamyltransferase prepared from swine kidney was added to the solution. After reaction at 37° C. for 120 minutes, the amount of the remaining peptide was determined.

Data set [2] in a line: In vitro hydrolysis in human plasma. The class given is in vitro ADME. The conditions noted are these: 37° C., 30 minutes; for remaining at 0.5 h, 2.18 mM: read-out: Residual amount in plasma (%). The method, then:
It was thus recognized that there was a clear difference between these peptides with respect to utilization in vivo.
To 100 μl of plasma collected and prepared from human was added 10 μl of a 24 mM solution of a peptide in physiological saline. After reaction at 37° C. for 30 minutes, the amount of the remaining peptide was determined.

A short description of data set [3]: In vitro hydrolysis in mouse plasma. The following applies: 37° C., 30 minutes; for remaining at 0.5 h, 2.46 mM: male, C3H/He mouse plasma, mean of five mice, read-out: Residual amount in plasma (%). The class given is in vitro ADME, C3H/He mouse. As for the experimental part: To 50 μl of plasma collected and prepared from C3H/He mouse (6 weeks of age, male, weighing 22 g) was added 5 μl of a 27.1 mM solution of a peptide in physiological saline, followed by reaction at 37° C. for 30 minutes.

Data set [4] in a line: Uptake by mouse kidney after tail vein administration. The following applies: 250 μmoles/kg tail vein, mean (SEM on next line). Format: in vivo, C3H/He mice.
Experimental: Uptake of γ-Glu-Cys-Cys and (γ-Glu-Cys)2 by mouse kidney was compared with that of (Ala-Cys)2 according to the test method described below.
Physiological saline solutions of γ-Glu-Cys-Cys, (γ-Glu-Cys)2 and (Ala-Cys)2 were administered respectively to groups of C3H/He mice (6 weeks of age, male, weighing 22 g) through the tail vein in a dose of 250 μmoles/kg body weight, and the kidney was excised 1, 5 and 20 minutes after the administration, followed by determination of glutamic acid, alanine and cystine in the kidney.
Data set [5] in a line: Stability in solution on heat treatment and on standing. The class given is physicochemical. The following applies: 10 mM.
The conditions of data set [6]: administered subcutaneously to mice; Anderson and Meister 1983; cited from earlier work.
The conditions of data set [7]: 25° C.; background statement; cited from earlier work.
Data set [8] can be described thus: Stability on heating in jelly-like nutrient preparation (Example 3). Format: physicochemical. The conditions noted are these: 100° C. for 30 minutes, Example 3 composition.

T1 sequence (P20735 1-379 limits assumed): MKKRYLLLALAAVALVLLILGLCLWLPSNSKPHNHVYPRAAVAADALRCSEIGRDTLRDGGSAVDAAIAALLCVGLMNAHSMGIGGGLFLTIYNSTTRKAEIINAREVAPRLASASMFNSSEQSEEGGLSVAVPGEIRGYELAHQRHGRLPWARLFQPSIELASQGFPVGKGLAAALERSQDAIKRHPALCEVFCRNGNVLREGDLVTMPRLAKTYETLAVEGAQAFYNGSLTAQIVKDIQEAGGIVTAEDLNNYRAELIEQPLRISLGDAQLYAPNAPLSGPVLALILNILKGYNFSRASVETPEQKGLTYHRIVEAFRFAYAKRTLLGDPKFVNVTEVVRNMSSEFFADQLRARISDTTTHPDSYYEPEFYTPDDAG
T1 sequence (P20735 380-568 limits assumed): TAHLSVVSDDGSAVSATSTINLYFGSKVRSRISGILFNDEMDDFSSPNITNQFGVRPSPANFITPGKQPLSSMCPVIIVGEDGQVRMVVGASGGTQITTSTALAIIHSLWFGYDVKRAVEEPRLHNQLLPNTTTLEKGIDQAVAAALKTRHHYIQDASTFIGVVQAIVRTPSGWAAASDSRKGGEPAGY
Text for Solubility in water: The solubility of γ-Glu-Cys-Cys and (γ-Glu-Cys)2 was compared with that of cystine and known cystine-containing peptides.

For `C[C@H](N)C(=O)N[C@@H](CSSC[C@H](NC(=O)[C@H](C)N)C(=O)O)C(=O)O` [(Ala-Cys)2, bis-α-L-alanyl-L-cystine, reference compound] (I: H-Ala-Cys-OH / II: H-Ala-Cys-OH; disulfide I:2-II:2), the “Solubility in 1000 ml of water” value in the data set “Solubility in water” is more than 50 g. Also, the “Hydrolysis by γ-glutamyltransferase” value in [1] is recorded as “not hydrolyzed”. Besides, the remaining at 0.5 h, 2.18 mM in data set [2] stood at 26%. Also, in [3], the remaining at 0.5 h, 2.46 mM is 0%. The “Ala (alanine) in kidney” value was 2.33 μmole/g wet weight of kidney in [4] (0 min after administration), 2.87 μmole/g wet weight of kidney in data set [4] (1 min after administration), 2.59 μmole/g wet weight of kidney in data set [4] (5 min after administration) and 2.16 μmole/g wet weight of kidney in [4] (20 min after administration).

On to `N[C@@H](CC(=O)O)C(=O)N[C@@H](CSSC[C@H](NC(=O)[C@@H](N)CC(=O)O)C(=O)O)C(=O)O` [(Asp-Cys)2, N,N'-bis-α-aspartyl-L-cystine] (I: H-Asp-Cys-OH / II: H-Asp-Cys-OH; disulfide I:2-II:2), for which, in the data set “Solubility in water”, the “Solubility in 1000 ml of water” value was more than 50 g. Moreover, in data set [1], the “Hydrolysis by γ-glutamyltransferase” value is “not hydrolyzed”. In data set [2], the remaining at 0.5 h, 2.18 mM was determined as 30%.

Consider `C[C@H](NC(=O)[C@@H](N)CSSC[C@H](N)C(=O)N[C@@H](C)C(=O)O)C(=O)O` [(Cys-Ala)2, L-cysteinyl-bis-L-alanine] (I: H-Cys-Ala-OH / II: H-Cys-Ala-OH; disulfide I:1-II:1), for which, in the data set “Solubility in water”, the “Solubility in 1000 ml of water” value came out at 8.1 g.

In the case of `NCC(=O)N[C@@H](CSSC[C@H](NC(=O)CN)C(=O)O)C(=O)O` [(Gly-Cys)2, bis-glycyl-L-cystine, reference compound] (I: H-Gly-Cys-OH / II: H-Gly-Cys-OH; disulfide I:2-II:2), the “Solubility in 1000 ml of water” value in the data set “Solubility in water” is reported as more than 50 g. Further, in data set [2], the remaining at 0.5 h, 2.18 mM worked out at 35%.

Turning to `N[C@@H](CCC(=O)N[C@@H](CSSC[C@H](NC(=O)CC[C@H](N)C(=O)O)C(=O)O)C(=O)O)C(=O)O` [(γ-Glu-Cys)2, L-glutamyl-L-cysteine disulfide], the “Solubility in 1000 ml of water” value in “Solubility in water” is more than 70 g. In data set [1], the “Hydrolysis by γ-glutamyltransferase” value was “almost completely hydrolyzed”. In addition, the “Hydrolysis in human plasma” value in data set [2] is on record as “hydrolyzed in plasma only with difficulty”. Further, the remaining at 0.5 h, 2.18 mM in data set [2] amounted to 85%. Further, the remaining at 0.5 h, 2.46 mM in data set [3] was 84%. In addition, the “Hydrolysis in mouse plasma” value in data set [3] is “hydrolyzed in plasma only with difficulty”. For the same compound, the “Glu (glutamic acid) in kidney” value in data set [4] (0 min after administration) was 5.54 μmole/g wet weight of kidney; in [4] (1 min after administration) it was 14.82 μmole/g wet weight of kidney; in data set [4] (5 min after administration), 22.5 μmole/g wet weight of kidney; in data set [4] (20 min after administration), 18.14 μmole/g wet weight of kidney. Moreover, the Decomposition on standing entry in [5] (pH 6.5, 40° C. for 60 days) is recorded as “not decomposed”. Further, the “Decomposition by heat treatment” value in data set [5] (pH 6.5, 110° C. for 20 minutes) is “hardly decomposed”. In addition, the “Utilization in the synthesis of kidney glutathione” value in [6] is listed as “can be utilized in the synthesis of kidney glutathione”.

For the compound `N[C@@H](CS)C(=O)NCCCC[C@H](NC(=O)[C@@H](N)CS)C(=O)O` [Cys-Lys(Cys), N^2 -cysteinyl-N^6 -L-cysteinyl-L-lysine] (H-Cys-Lys(Cys)-OH), the “Solubility in 1000 ml of water” value in “Solubility in water” is recorded as more than 50 g.

For `N[C@@H](CSSC[C@H](N)C(=O)O)C(=O)O` [Cystine, L-cystine], in “Solubility in water”, the “Solubility in 1000 ml of water” value is recorded as 0.1 g. For the same compound, the solubility in water result in [7] is “less than 0.11 g/l”.

With `N[C@@H](CCC(=O)N[C@@H](CSSC[C@H](N)C(=O)O)C(=O)O)C(=O)O` [γ-Glu-Cys-Cys], the “Solubility in 1000 ml of water” value in the data set “Solubility in water” is recorded as more than 70 g. The “Hydrolysis in human plasma” value in data set [2] was “hydrolyzed in plasma only with difficulty”. Besides, in [2], the remaining at 0.5 h, 2.18 mM was determined as 67%. In data set [3], the remaining at 0.5 h, 2.46 mM came to 53%. The “Hydrolysis in mouse plasma” value in data set [3] was “hydrolyzed in plasma only with difficulty”. The “Glu (glutamic acid) in kidney” value in data set [4] (0 min after administration) is on record as 5.54 μmole/g wet weight of kidney; in data set [4] (1 min after administration) it was 13.09 μmole/g wet weight of kidney; in data set [4] (5 min after administration) it was 20.32 μmole/g wet weight of kidney; in [4] (20 min after administration), 15.1 μmole/g wet weight of kidney. In [8], the “Stability under heating of the jelly-like preparation” value was “stably maintained”.
